Laboratory results reported in patent US9688653B2, “Ethoxyphenyl thienyl compounds and methods for the treatment of bacterial infections” (Duke University, priority 2013, dated 2017).
“Also recorded” adds a separate entry of the source.

Legend:
[1] = tested on: Bladder carcinoma 5637 cells; conditions: earlier report; cited from earlier work
[2] = tested on: UPEC K1 strain UTI80; conditions: cited from earlier work
[3] = tested on: K1 capsule of UTI89; experiment: Secondary assay 3: orcinol assay for released K1 capsule polysaccharide; type: cell-based, Escherichia coli; conditions: 100 μM, K1 strain UTI89
Description: E. Secondary Assay 3: Orcinol Secondary Screening for Inhibitors of Bacterial Capsule Biogenesis.
Purpose: This assay was performed only on the probe candidate. […] The biochemical determination of cell-surface associated capsule was performed using UTI89 or the Delta Region I and Delta Region II capsule mutant bacterial strains.
Purpose: This assay was performed only on the probe candidate. […] The biochemical determination of cell-surface associated capsule was performed using UTI89 or the delta Region I and Region II capsule mutant bacterial strains.
Assay Description: The biochemical measurement of cell-surface associated capsule was performed. UTI89 or capsule mutants were grown in culture tubes with and without the test compound (50 μM). The cultures were centrifuged, and the cell pellets were washed in PBS and resuspended in Tris buffer, pH5. […] Released polysaccharide was harvested by separation from whole bacteria by centrifugation followed by deproteination with phenol/chloroform and precipitation with ethanol. The precipitated material was subjected to acid hydrolysis (pH 2 at 80° C. for 1 hr) and incubated with orcinol, which reacts with periodic intermediates to produce a violet color quantified at OD 570 (3) Inhibitors reducing or abrogating surface encapsulation yielded low orcinol levels similar to the capsule export and synthesis mutants (Region I and II). The positive control drug C7 (100 μM final well concentration) was used in this screen.
Endpoint Read: The samples were read at ambient temperature from the bottom for absorbance at A570 in a BioTek Quantplate reader and the degree of orcinol-reactive material was determined based on the absorbance compared to a wild-type encapsulated strain (UTI89) and a standard curve using purified sialic acid.
Orcinol assay for released capsule material. Orcinol reactivity was used as a biochemical confirmation of altered extracellular capsule after compound treatment. UTI89 or an isogenic capsule mutant was grown in 100 μM of test compound or 1% DMSO. The assay was performed as previously described. The molecule C7 (100 μM final concentration) was used as a positive control. The assay was performed 3 times with replicate samples.

[4] = tested on: E. coli K1 strain UTI89; experiment: microbe, parasite or virus in culture; conditions: for IC50: Escherichia coli; for Selectivity: five probe analogues
How it was run: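 UTI89 cultures in LB with 0.5% DMSO were preincubated 2 hr at 37 °C with compounds (100 μM in screen), then with K1F phage a further 2 hr. Viability was read as Alamar Blue fluorescence. Phage-lysis inhibition is relative to plate bacterial controls; IC50 by 4-parameter fit locked at 0 and 100.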

[5] = Cytotoxicity counterscreen, CellTiter Glo, 72 hr; type: cell-based, human; conditions: human, bladder carcinoma 5637 cells (ATCC HTB-9), five probe analogues
How it was run: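 5637 bladder carcinoma cells were exposed to a 10-point compound series (300-0.58 μM, 0.5% DMSO) for 72 h. Viability was measured by CellTiter-Glo luminescence, and TC50 (CC50) was derived, with Hyamine as cytotoxic control.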

[6] = tested on: E. coli K1 strain UTI89; experiment: Secondary assay 2: T7 phage-mediated lysis assay; type: cell-based, Escherichia coli; conditions: Escherichia coli, five probe analogues; read-out: T7 phage IC50
How it was run: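 E. coli K1 UTI89 shaken 1.5 h with compound (100–0.39 μM, quadruplicate, 1% DMSO), initial OD600 taken to flag growth effects without phage. T7 phage, whose entry is blocked by K capsule, then added; OD600 lysis read after 3 h at 37 °C, greater lysis indicating less capsule.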

[7] = tested on: panel of 68 receptors; conditions: 10 μM, duplicate; upper bound over all targets
[8] = tested on: K1 antigen of UTI89; experiment: K1 antigen whole-cell dot blot with anti-K1 serum; type: cell-based, Escherichia coli; conditions: 100 μM
Description: K1 antigen dot blot. K1 antigen was detected by dot blot assays of culture extracts probed with anti-K1 H46 serum. The assay was performed as previously described. The experiment was repeated twice with similar results, and a representative dot blot is shown.

[9] = tested on: E. coli UTI89; experiment: Human serum sensitization (MTT); type: cell-based, Escherichia coli; conditions: 50 μM compound, p=0.0067 versus control
Description: Human serum sensitization by capsule inhibitor treatment. Overnight cultures of UTI89 were diluted 1:100 and grown with or without 50 μM compound for approximately 1.5 hrs on a shaker at 37° C. Then 25 μL of anonymous, non-identified, sterile filtered pooled human serum (purchased from Equitech Bio) was added per 100 μL of growth media. This was returned to the shaker for another 3 hrs, after which 20 μL of 5 mg/mL MTT (3-(4,5-Dimethylthiazol-2-yl)-2,5-diphenyltetrazolium bromide) was added. MTT is reduced to purple formazan by bacterial reductase enzymes, thus measuring viable bacteria. This was shaken for another 15 min at 37° C. The sample was spun to remove the growth media, followed by two washes with PBS. The formazan crystals were dissolved in 100 μL of DMSO and measured at OD570.

[10] = biological target: norepinephrine transporter (Homo sapiens, UniProt P23975); experiment: LeadProfilingScreen, single target; type: binding; conditions: duplicate
Sequence of norepinephrine transporter (P23975 whole entry): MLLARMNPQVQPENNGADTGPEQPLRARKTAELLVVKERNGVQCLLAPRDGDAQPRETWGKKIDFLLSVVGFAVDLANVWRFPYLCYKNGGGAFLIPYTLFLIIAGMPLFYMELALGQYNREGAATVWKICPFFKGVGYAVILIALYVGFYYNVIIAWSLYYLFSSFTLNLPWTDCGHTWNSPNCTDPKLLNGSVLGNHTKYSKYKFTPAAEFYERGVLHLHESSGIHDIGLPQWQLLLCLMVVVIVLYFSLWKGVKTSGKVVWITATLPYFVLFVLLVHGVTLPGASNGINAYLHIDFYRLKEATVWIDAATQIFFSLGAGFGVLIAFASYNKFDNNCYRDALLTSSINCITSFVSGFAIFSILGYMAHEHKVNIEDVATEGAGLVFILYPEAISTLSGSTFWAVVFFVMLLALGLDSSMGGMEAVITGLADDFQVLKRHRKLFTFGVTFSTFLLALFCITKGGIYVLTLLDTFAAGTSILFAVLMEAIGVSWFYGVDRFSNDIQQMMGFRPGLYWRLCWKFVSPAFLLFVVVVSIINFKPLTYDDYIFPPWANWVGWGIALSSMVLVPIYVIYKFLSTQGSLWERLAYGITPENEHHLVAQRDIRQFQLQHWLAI
Description: Evaluation of off-target effects. Off target effects of lead molecules of interest were evaluated using the LeadProfilingScreen commercial assay at Eurofins Panlabs (Bothell, Wash.). Reference standards were run as an integral part of each assay to ensure the validity of the results obtained. Assay results are presented as the percent inhibition of specific binding or activity (for n=2 replicates) for the probe compound tested at a concentration of 10 μM. Details regarding the individual assays and methods are provided in Supplementary Information File 51.
DU003 & DU011 are biologically selective. DU003 and DU011 were submitted to the Eurofins Panlabs LeadProfilingScreen to assess off-target pharmacology 1421. […] In review of PubChem data, DU011 (CID23602075) is reported to have shown activity in only 21 of 467 (4.5%, as of Sep. 5, 2013) bioassays in which it was tested (assays unrelated to the current project). Per PubChem, DU003 (CID18109210) is reported to have shown activity in only 5 of 427 (1.2%, as of Sep. 5, 2013) bioassays in which it was tested (assays unrelated to the current project).

[11] = Thiol stability (glutathione, DTT); type: physicochemical; conditions: 10 μM compound, PBS pH 7.4, room temperature, eight hours
Description: Compounds were dissolved at 10 μM in PBS at pH 7.4 (1% DMSO) and incubated at room temperature with either no thiol source as a negative control, 50 μM glutathione (GSH), or 50 μM dithiothreitol (DTT). The mixtures were sampled every hour for eight hours and analyzed by RP HPLC/UV/HRMS. The analytical RP HPLCUV/HRMS system utilized for the analysis was a Waters Acquity system with UV-detection and mass-detection (Waters LCT Premier). The analytical method conditions included a Waters Acquity HSS T3 C18 column (2.1×50 mm, 1.8 um) and elution with a linear gradient of 1% water to 100% CH3CN at 0.6 mL/min flow rate. Peaks on the 214 nm chromatographs were integrated using the Waters OpenLynx software. Absolute areas under the curve were compared at each time point to determine relative percent compound remaining. The masses of potential adducts were searched for in the final samples to determine if any detectable adduct formed. All samples were prepared in duplicate (FIG. 5). Ethacrynic acid, a known Michael acceptor, was used as a positive control. If solubility of the compound was an issue at 10 μM, PBS was substituted with PBS with 50% acetonitrile (35).

[12] = read-out: K1 phage IC50 (inhibition of K1 capsule formation)
[13] = read-out: K1 phage IC50, five probe analogues

Which “Toxicity to cultured bladder epithelial cells” value [1] does the source give for `O=C(O)c1cc(-c2ccc(-c3ccccc3)cc2)nc2cc3ccccc3cc12` [C7, 2-(4-phenylphenyl)-benzo[g]quinoline-4-carboxylic acid] here?
Its value is “lacks obvious toxicity”.

What about the “Concentration at which the inhibitory effect reaches saturation” value [2] of the same molecule?
Its value is “approximately 25 μM”.

What about the IC50 ([2]; read-out: Concentration giving approximately 50% inhibition of K1F phage lysis (IC50)) of the same molecule?
The IC50 was 12.5 to 25 µM.

And the “Reduction of orcinol-reactive polysaccharides on surface of bacteria” value [3]?
Its value is about 80%.

With `COc1ccc(-c2cc(NC(=O)c3ccc(Br)o3)c(C(=O)O)s2)cc1` [CID 53470446, 3-(5-Bromofuran-2-carboxamido)-5-(4-methoxyphenyl)thiophene-2-carboxylic acid] as the molecule, how does the IC50 [4, 12] read?
Its IC50 is 11.1 µM.

What about the IC50 [4, 13] of the same molecule?
The IC50 was 11.1 ± 3.33 µM.

And the Selectivity [4]?
Its Selectivity is 4.55.

What about the IC50 at 72 h [5] of the same molecule?
Its IC50 at 72 h is 50.5 ± 0.52 µM.

And the IC50 [6]?
Its IC50 is 1240 nM.

With `O=C(O)c1sc(-c2ccc(OC(F)(F)F)cc2)cc1NC(=O)c1c(F)cccc1F` [CID 53495055, 3-(2,6-Difluorobenzamido)-5-(4-(trifluoromethoxy)phenyl)thiophene-2-carboxylic acid] as the molecule, how does the IC50 [4, 12] read?
Its IC50 is 13 µM.

And the IC50 [4, 13]?
Its IC50 is 13 ± 4.6 µM.

What about the Selectivity [4] of the same molecule?
The Selectivity was 3.91.

And the IC50 at 72 h [5]?
Its IC50 at 72 h is 51 ± 2.62 µM.

What about the IC50 [6] of the same molecule?
The IC50 was 1360 nM.

Which “Inhibition across off-target panel” value [7] does the source give for `O=C(Nc1ccncc1)c1ccc2ncsc2c1` [DU003, N-pyridin-4-yl-1,3-benzothiazole-6-carboxamide] here?
The value was under 30%.

What about the “Whole-cell anti-K1 dot blot reactivity” value [8] of the same molecule?
Its value is “reduces K1 reactive material to levels comparable to those of genetic capsule mutants”.

And the “Sensitivity of UTI89 to pooled human serum (MTT)” value [9]?
Its value is “further increased serum-mediated killing; also recorded: significantly more sensitive”.

What about the inhibition at 10 µM [10] of the same molecule?
The inhibition at 10 µM was 58%.

What about the “Reduction of orcinol-reactive polysaccharides on surface of bacteria” value [3] of the same molecule?
The value was about 80%.

Which results are given for `C=C(CC)C(=O)c1ccc(OCC(=O)O)c(Cl)c1Cl` [ethacrynic acid, Ethacrynic acid]?
Stability to DTT ([11]; 50 μM DTT): even more rapidly; Stability to glutathione ([11]; 50 μM GSH): react rapidly
